Measured values reported in ChEMBL document CHEMBL1157501, “Novel fluorinated acridone derivatives. Part 1: synthesis and evaluation as potential anticancer agents” (Bioorg Med Chem Lett, 2008).

Columns and labels:
MDA-MB-231 = assay: Anticancer activity against human MDA-MB-231 cells; type: functional
T47D [1] = assay: Growth inhibition of human T47D cells at 10 uM relative to control; type: functional
SNB-75 [2] = assay: Growth inhibition of human SNB75 cells at 10 uM relative to control; type: functional
786-0 [3] = assay: Anticancer activity against human 786-0 cells; type: functional
COLO 205 = assay: Anticancer activity against human COLO205 cells; type: functional
UACC-257 [4] = assay: Anticancer activity against human UACC257 cells; type: functional
NCI-H226 = assay: Anticancer activity against human NCI-H226 cells; type: functional
NCI-H23 = assay: Anticancer activity against human NCI-H23 cells; type: functional
NCI-H322M = assay: Anticancer activity against human NCI-H322M cells; type: functional
BT-549 = assay: Anticancer activity against human BT549 cells; type: functional
[5] = Growth inhibition of human HL60(TB) cells at 10 uM relative to control; type: functional, HL-60(TB); conditions: HL-60
CAKI-1 [6] = assay: Anticancer activity against human CAKI1 cells; type: functional
MDA-MB-435 = assay: Anticancer activity against human MDA-MB-435 cells; type: functional
ACHN = assay: Anticancer activity against human ACHN cells; type: functional
A498 = assay: Anticancer activity against human A498 cells; type: functional
HCT-116 [7] = assay: Growth inhibition of human HCT116 cells at 10 uM relative to control; type: functional
OVCAR-8 = assay: Anticancer activity against human OVCAR8 cells; type: functional
SK-MEL-28 [8] = assay: Anticancer activity against human SK-MEL-28 cells; type: functional
HCT-15 = assay: Anticancer activity against human HCT15 cells; type: functional
MOLT-4 [9] = assay: Anticancer activity against human MOLT4 cells; type: functional
SF-539 = assay: Anticancer activity against human SF539 cells; type: functional
OVCAR-3 = assay: Anticancer activity against human OVCAR-3 cells; type: functional
MDA-MB-468 = assay: Anticancer activity against human MDA-MB-468 cells; type: functional
SF-295 [10] = assay: Anticancer activity against human SF295 cells; type: functional
HCC 2998 = assay: Anticancer activity against human HCC2998 cells; type: functional
NCI/ADR-RES = assay: Anticancer activity against human NCI/ADR-RES cells; type: functional
HT-29 [11] = assay: Growth inhibition of human HT29 cells at 10 uM relative to control; type: functional
TK-10 = assay: Anticancer activity against human TK10 cells; type: functional
LOX IMVI = assay: Anticancer activity against human LOX IMVI cells; type: functional
NCI-H522 = assay: Anticancer activity against human NCI-H522 cells; type: functional
SNB-19 = assay: Anticancer activity against human SNB19 cells; type: functional
M14 = assay: Anticancer activity against human M14 cells; type: functional
HOP-62 = assay: Anticancer activity against human HOP62 cells; type: functional
NCI-H460 = assay: Anticancer activity against human NCI-H460 cells; type: functional
UACC-257 [12] = assay: Growth inhibition of human UACC257 cells at 10 uM relative to control; type: functional
MCF7 [13] = assay: Anticancer activity against human MCF7 cells; type: functional
K562 = assay: Anticancer activity against human K562 cells; type: functional
HT-29 [14] = assay: Anticancer activity against human HT29 cells; type: functional
CAKI-1 [15] = assay: Growth inhibition of human CAKI1 cells at 10 uM relative to control; type: functional
Malme-3M = assay: Anticancer activity against human MALME-3M cells; type: functional
SK-MEL-28 [16] = assay: Growth inhibition of human SK-MEL-28 cells at 10 uM relative to control; type: functional
EKVX = assay: Anticancer activity against human EKVX cells; type: functional
SK-MEL-5 = assay: Anticancer activity against human SK-MEL-5 cells; type: functional
SF-295 [17] = assay: Growth inhibition of human SF295 cells at 10 uM relative to control; type: functional
MCF7 [18] = assay: Growth inhibition of human MCF7 cells at 10 uM relative to control; type: functional
CCRF-CEM [19] = assay: Anticancer activity against human CCRF-CEM cells; type: functional
OVCAR-5 = assay: Anticancer activity against human OVCAR5 cells; type: functional
T47D [20] = assay: Anticancer activity against human T47D cells; type: functional
OVCAR-4 = assay: Anticancer activity against human OVCAR4 cells; type: functional
IGROV-1 = assay: Anticancer activity against human IGROV1 cells; type: functional
SW-620 = assay: Anticancer activity against human SW620 cells; type: functional
SK-OV-3 = assay: Anticancer activity against human SKOV3 cells; type: functional
RPMI-8226 = assay: Anticancer activity against human RPMI8226 cells; type: functional
786-0 [21] = assay: Growth inhibition of human 786-0 cells at 10 uM relative to control; type: functional
HOP-92 [22] = assay: Growth inhibition of human HOP92 cells at 10 uM relative to control; type: functional
UO-31 = assay: Anticancer activity against human UO31 cells; type: functional
[23] = Anticancer activity against human HL60(TB) cells; type: functional; conditions: HL-60
HOP-92 [24] = assay: Anticancer activity against human HOP92 cells; type: functional
A549 [25] = assay: Anticancer activity against human A549 cells; type: functional
Hs-578T = assay: Anticancer activity against human HS578T cells; type: functional
U-251 = assay: Anticancer activity against human U251 cells; type: functional
SF-268 = assay: Anticancer activity against human SF268 cells; type: functional
MOLT-4 [26] = assay: Growth inhibition of human MOLT4 cells at 10 uM relative to control; type: functional
KM12 = assay: Anticancer activity against human KM12 cells; type: functional
HCT-116 [27] = assay: Anticancer activity against human HCT116 cells; type: functional
UACC-62 = assay: Anticancer activity against human UACC62 cells; type: functional
SN12C = assay: Anticancer activity against human SN12C cells; type: functional
SNB-75 [28] = assay: Anticancer activity against human SNB75 cells; type: functional
PC-3 = assay: Anticancer activity against human PC3 cells; type: functional
DU-145 = assay: Anticancer activity against human DU145 cells; type: functional
A549 [29] = assay: Growth inhibition of human A549 cells at 10 uM relative to control; type: functional
CCRF-CEM [30] = assay: Growth inhibition of human CCRF-CEM cells at 10 uM relative to control; type: functional

Compound: O=C1CC(C(F)(F)F)Cc2nc3c(Br)cc(Br)cc3cc21 (stereo not given)
- GI50 (MDA-MB-231): 5.89 µM
- inhibition at 10 µM (T47D [1]): 66%
- inhibition at 10 µM (SNB-75 [2]): 76%
- GI50 (786-0 [3]): 8.12 µM
- GI50 (COLO 205): 3.23 µM
- GI50 (UACC-257 [4]): 16.1 µM
- GI50 (NCI-H226): 10.7 µM
- GI50 (NCI-H23): 3.14 µM
- GI50 (NCI-H322M): 6.26 µM
- GI50 (BT-549): 4.63 µM
- inhibition at 10 µM [5]: 58%
- GI50 (CAKI-1 [6]): 5.03 µM
- GI50 (MDA-MB-435): 1.56 µM
- GI50 (ACHN): 17.5 µM
- GI50 (A498): 2.69 µM
- inhibition at 10 µM (HCT-116 [7]): 64%
- GI50 (OVCAR-8): 26 µM
- GI50 (SK-MEL-28 [8]): 8.98 µM
- GI50 (HCT-15): 3.35 µM
- GI50 (MOLT-4 [9]): 20.8 µM
- GI50 (SF-539): 2.85 µM
- GI50 (OVCAR-3): 1.79 µM
- GI50 (MDA-MB-468): 5.11 µM
- GI50 (SF-295 [10]): 2.96 µM
- GI50 (HCC 2998): 2.6 µM
- GI50 (NCI/ADR-RES): 2.55 µM
- inhibition at 10 µM (HT-29 [11]): 77%
- GI50 (TK-10): 7.89 µM
- GI50 (LOX IMVI): 19 µM
- GI50 (NCI-H522): 11.1 µM
- GI50 (SNB-19): 11.3 µM
- GI50 (M14): 5.47 µM
- GI50 (HOP-62): 4.52 µM
- GI50 (NCI-H460): 3.1 µM
- inhibition at 10 µM (UACC-257 [12]): 39%
- GI50 (MCF7 [13]): 0.13 µM
- GI50 (K562): 6.23 µM
- GI50 (HT-29 [14]): 4.42 µM
- inhibition at 10 µM (CAKI-1 [15]): 44%
- GI50 (Malme-3M): 7.15 µM
- inhibition at 10 µM (SK-MEL-28 [16]): 40%
- GI50 (EKVX): 3.54 µM
- GI50 (SK-MEL-5): 5.03 µM
- inhibition at 10 µM (SF-295 [17]): 61%
- inhibition at 10 µM (MCF7 [18]): 41%
- GI50 (CCRF-CEM [19]): 21.9 µM
- GI50 (OVCAR-5): 1.91 µM
- GI50 (T47D [20]): 3.55 µM
- GI50 (OVCAR-4): 6.49 µM
- GI50 (IGROV-1): 1.29 µM
- GI50 (SW-620): 15.7 µM
- GI50 (SK-OV-3): 7.55 µM
- GI50 (RPMI-8226): 4.32 µM
- inhibition at 10 µM (786-0 [21]): 54%
- inhibition at 10 µM (HOP-92 [22]): 57%
- GI50 (UO-31): 3.86 µM
- GI50 [23]: 2.94 µM
- GI50 (HOP-92 [24]): 11.2 µM
- GI50 (A549 [25]): 4.65 µM
- GI50 (Hs-578T): 16.3 µM
- GI50 (U-251): 11.9 µM
- GI50 (SF-268): 4.35 µM
- inhibition at 10 µM (MOLT-4 [26]): 31%
- GI50 (KM12): 2.02 µM
- GI50 (HCT-116 [27]): 4.03 µM
- GI50 (UACC-62): 9.87 µM
- GI50 (SN12C): 8.82 µM
- GI50 (SNB-75 [28]): 1.46 µM
- GI50 (PC-3): 5.75 µM
- GI50 (DU-145): 4.13 µM

Compound: Cc1c2c(nc3cc4c(cc13)OCO4)CC(C(F)(F)F)CC2=O (stereo not given)
- inhibition at 10 µM (T47D [1]): < 20%
- inhibition at 10 µM (SNB-75 [2]): 25%
- inhibition at 10 µM (A549 [29]): 67%
- inhibition at 10 µM [5]: < 20%
- inhibition at 10 µM (CCRF-CEM [30]): < 20%
- inhibition at 10 µM (HCT-116 [7]): < 20%
- inhibition at 10 µM (HT-29 [11]): < 20%
- inhibition at 10 µM (UACC-257 [12]): < 20%
- inhibition at 10 µM (CAKI-1 [15]): < 20%
- inhibition at 10 µM (SK-MEL-28 [16]): < 20%
- inhibition at 10 µM (SF-295 [17]): 32%
- inhibition at 10 µM (MCF7 [18]): < 20%
- inhibition at 10 µM (786-0 [21]): < 20%
- inhibition at 10 µM (HOP-92 [22]): < 20%
- inhibition at 10 µM (MOLT-4 [26]): < 20%
